The values that follow are results of earlier work, collected in patent US20220351806A1, “Biomarker Panels for Guiding Dysregulated Host Response Therapy” (Endpoint Health Inc., priority 2019, published 2022).

Series [1] relates to shock events induced by endotoxin. The following applies: rats, preventive administration, injected endotoxin; cited from earlier work.
In series [2] the test system is acid-induced lung injury. The following applies: rats, cited from earlier work.
The test system of series [3] is oncologic and lymphopenic patients. Conditions: over 390 oncologic and lymphopenic patients; cited from earlier work.
Series [4] concerns septic animals. Conditions: exogenous TFPI expressed in mammalian cells and/or Escherichia coli; cited from earlier work.

Regarding `CC1C(=O)OC2C(O)C34C5CC(C(C)(C)C)C36C(OC(=O)C6O)OC4(C(=O)O5)C12O` (stereo not drawn) [BN 52021], the “release of thromboxane and prostaglandin factor 1-α (PGF1-α)” value in series [1] is “reduced”.

Take `CCOC(=O)[C@H](Cc1ccccc1)NC(=O)c1cc(Cl)c(OCCN2CCN(C)CC2)c(Cl)c1O.Cl.Cl` [JTE 607]: the “production of inflammatory cytokines (tumor necrosis factor-alpha, interleukin-6, cytokine-induced neutrophil chemoattractant)” value in series [2] (acid-induced lung injury) is “inhibit the production”. Besides, the acid-induced lung injury entry in series [2] is on record as “attenuate acid-”.

For CYT-107, in series [3], the immunity entry was “counts, and improved”; the safety entry is reported as “safe, invariably”.

As to tifacogin, the “outcome in septic animals” value in series [4] is “coli improved”.
